Experimental data as given in patent US20250090493A1, “THERAPEUTIC COMPOSITION DELIVERY DEVICE” (Helios Cardio Inc., priority 2021, published 2025).

What was measured:
[1] = Amiodarone quantification in tissues by LC/MS after pericardial repair with amiodarone-soaked EBM patch, or IV amiodarone control, ovine model; assay type: in vivo; conditions: sheep
Text: Specifically, EBM under the tradename CardiaMend™ was used. The device was approximately 1 mm thick (range 0.75-1.54 mm). An ovine model was used for a pericardial repair procedure. […] The EBM patch was then inserted through a hole cut through the pericardium via a mini-thoracotomy approach and secured with sutures at the margins of the pericardial defect. Following closure of the superficial muscle and skin, the animals were recovered, and housed until sacrifice at 3 days, 7 days, and 28 days. […] Following sacrifice, the repair site was explored, and the implant and heart were grossly evaluated for signs of inflammation, scarring, or fibrosis. Gross images were acquired.

[2] = as above; assay type: in vivo; conditions: sheep, 1000 mg/day, Maximum IV delivery-positive control Average, 1,000 mg/day via IV for 14 days

## CCCCc1oc2ccccc2c1C(=O)c1cc(I)c(OCCN(CC)CC)c(I)c1 [Amiodarone, amiodarone]
[1]; EBM 7 cm by 10 cm soaked in 6 mL of 50 mg/mL amiodarone hydrochloride, pericardial patch, myocardium, day 3
  Amiodarone concentration, Myocardium, Day 3 Average: 63.50 µg/g
[1]; EBM drug delivery, local single dose, left atrium, day 3-7
  Amiodarone concentration, Left Atrium, EBM drug delivery Day 3-7 Average: 96 µg/g
[1]; EBM drug delivery, local single dose, liver, day 3-7
  Amiodarone concentration, Liver, EBM drug delivery Day 3-7 Average: 1 µg/g
[1]; EBM drug delivery, local single dose, lung, day 3-7
  Amiodarone concentration, Lung, EBM drug delivery Day 3-7 Average: 4 µg/g
[1]; EBM drug delivery, local single dose, right atrium, day 3-7
  Amiodarone concentration, Right Atrium, EBM drug delivery Day 3-7 Average: 83 µg/g
[1]; EBM drug delivery, local single dose, ventricles, day 3-7
  Amiodarone concentration, Ventricles, EBM drug delivery Day 3-7 Average: 14 µg/g
[1]; amiodarone-soaked EBM pericardial patch, liver, day 28
  Amiodarone concentration, Liver, Day 28 Average: below the limit of detection
[2]; left atrium
  concentration at 14 day: 19000 ng/g
[2]; liver
  concentration at 14 day: 8000 ng/g
[2]; lung
  concentration at 14 day: 27000 ng/g
[2]; right atrium
  concentration at 14 day: 33000 ng/g
[2]; ventricles
  concentration at 14 day: 9000 ng/g
